Read-outs that look alike come from different tables or passages of the source.

Data on 29 molecules can be found in patent US8592456B2 (4SC Discovery GmbH, priority 2011, dated 2013).

The test has as its system PBMC (T cell proliferation). Briefly: T cell proliferation assay, PHA-stimulated human PBMC (BrdU ELISA). Type of test: cell-based. The following applies: 48 hours, BrdU. Here is the method:
Cell proliferation was analysed using the BrdU based cell proliferation ELISA from Roche (Mannheim, Germany) according to the manufacturer's instructions.
T Cell Proliferation Assay
Peripheral blood mononuclear cells (PBMC) from healthy human donors were isolated by centrifugation over Ficoll-Hypaque (Sigma-Aldrich, Germany) according to manufacturer's instructions. Purified PBMC were washed twice with PBS and resuspended in RPMI1640 culture medium supplemented with 10% dialyzed heat inactivated fetal calf serum, 1.5 mM L-glutamine, 100 U penicillin/ml, and […] (all from PAN Biotech, Aidenbach, Germany). For stimulation, PBMC were seeded at 1×10^5 cells/well, activated with 2 μg/ml phytohaemagglutinin (PHA, Sigma) and incubated with the test compound. After 48 hours proliferation was measured using the BrdU based cell proliferation ELISA from Roche (Mannheim, Germany) according to the manual.

Where [1] appears, read: PHA-stimulated human PBMC, column D, activity classes 1-4, read-out: IC50 (Tcell proliferation).
Where [2] appears, read: human PBMC, 2 μg/ml PHA, read-out: D: IC50 (Tcell proliferation).

With `Fc1cccc(Cl)c1-c1noc(-c2cnn(-c3cccc(Cl)c3)c2C(F)(F)F)c1-c1ccco1` [IB-6, 3-(2-chloro-6-fluorophenyl)-5-(1-(3-chlorophenyl)-5-(trifluoromethyl)-1H-pyrazol-4-yl)-4-(furan-2-yl)isoxazole], the IC50 under setting [1] is less than 0.01 µM.
Regarding `Nc1c(-c2c(F)cccc2Cl)noc1-c1cnn(-c2cccc(Cl)c2)c1C(F)(F)F` [Example B-36, 3-(2-chloro-6-fluorophenyl)-5-(1-(3-chlorophenyl)-5-(trifluoromethyl)-1H-pyrazol-4-yl)isoxazol-4-amine], the IC50 under setting [2] fell in the range of 0.1 to 1 µM.
In the case of `CON(C)C(=O)c1c(-c2c(F)cccc2Cl)noc1-c1cnn(-c2cccnc2)c1C(F)(F)F` [Example B-56, 3-(2-chloro-6-fluorophenyl)-N-methoxy-N-methyl-5-(1-(pyridin-3-yl)-5-(trifluoromethyl)-1H-pyrazol-4-yl)isoxazole-4-carboxamide], the IC50 under setting [2] was 1 to 10 µM.
As for `COC(=O)c1c(-c2c(F)cccc2Cl)noc1-c1cnn(-c2cccc(Cl)c2Cl)c1C(F)(F)F` [Example 4, methyl 3-(2-chloro-6-fluorophenyl)-5-(1-(2,3-dichlorophenyl)-5-(trifluoromethyl)-1H-pyrazol-4-yl)isoxazole-4-carboxylate], the IC50 under setting [2] is 1 to 10 µM.
Take `CNC(=O)c1c(-c2c(F)cccc2Cl)noc1-c1cnn(-c2cccc(Cl)c2)c1C(F)(F)F` [Example 32, 3-(2-chloro-6-fluorophenyl)-5-(1-(3-chlorophenyl)-5-(trifluoromethyl)-1H-pyrazol-4-yl)-N-methylisoxazole-4-carboxamide]: under setting [2], the IC50 is 0.01 to 0.1 µM.
Turning to `CNC(=O)c1c(-c2c(Cl)cccc2Cl)noc1-c1cnn(-c2cccc(F)c2)c1C(F)(F)F` [Example 110, 3-(2,6-dichlorophenyl)-5-(1-(3-fluorophenyl)-5-(trifluoromethyl)-1H-pyrazol-4-yl)-N-methylisoxazole-4-carboxamide], under setting [2], the IC50 lay in the range of 0.01 to 0.1 µM.
`Fc1cccc(Cl)c1-c1noc(-c2cnn(-c3ccncc3)c2C(F)(F)F)c1-c1nnco1` [IB-16, 2-(3-(2-chloro-6-fluorophenyl)-5-(1-(pyridin-4-yl)-5-(trifluoromethyl)-1H-pyrazol-4-yl)isoxazol-4-yl)-1,3,4-oxadiazole]: the IC50 under setting [1] lay within 0.1 to 1 µM.
For the molecule `CNC(=O)c1c(-c2c(F)cccc2Cl)noc1-c1cnn(-c2ccccc2F)c1C(F)(F)F` [Example 19, 3-(2-chloro-6-fluorophenyl)-5-(1-(2-fluorophenyl)-5-(trifluoromethyl)-1H-pyrazol-4-yl)-N-methylisoxazole-4-carboxamide], the IC50 under setting [2] lay in the range of 1 to 10 µM.
Take `COC(=O)c1c(-c2c(F)cccc2Cl)noc1-c1cnn(-c2ccc(Cl)cc2Cl)c1C(F)(F)F` [Example 7, methyl 3-(2-chloro-6-fluorophenyl)-5-(1-(2,4-dichlorophenyl)-5-(trifluoromethyl)-1H-pyrazol-4-yl)isoxazole-4-carboxylate]: the IC50 under setting [2] was 1 to 10 µM.
As to `CNC(=S)c1c(-c2c(F)cccc2Cl)noc1-c1cnn(-c2cccc(Cl)c2)c1C(F)(F)F` [Example 72, 3-(2-chloro-6-fluorophenyl)-5-(1-(3-chlorophenyl)-5-(trifluoromethyl)-1H-pyrazol-4-yl)-N-methylisoxazole-4-carbothioamide], under setting [2], the IC50 lay in the range of 0.1 to 1 µM.
As for `CCOc1cc(-n2ncc(-c3onc(-c4c(F)cccc4Cl)c3C(=O)OC)c2C(F)(F)F)ncn1` [Example 116, methyl 3-(2-chloro-6-fluorophenyl)-5-(1-(6-ethoxypyrimidin-4-yl)-5-(trifluoromethyl)-1H-pyrazol-4-yl)isoxazole-4-carboxylate], the IC50 under setting [2] lay in the range of 1 to 10 µM.
For `CCOC(=O)c1c(-c2ccccc2F)noc1-c1cnn(-c2cccc(F)c2)c1C(F)(F)F` [Example 90, ethyl 3-(2-fluorophenyl)-5-(1-(3-fluorophenyl)-5-(trifluoromethyl)-1H-pyrazol-4-yl)isoxazole-4-carboxylate], the IC50 under setting [2] was 0.1 to 1 µM.
For the molecule `COC(=O)c1c(-c2ccccc2Cl)noc1-c1cnn(-c2cccc(F)c2)c1C(F)(F)F` [Example 95, methyl 3-(2-chlorophenyl)-5-(1-(3-fluorophenyl)-5-(trifluoromethyl)-1H-pyrazol-4-yl)isoxazole-4-carboxylate], the IC50 under setting [2] was less than 0.01 µM.
On to `CCOC(=O)c1c(-c2ccncc2F)noc1-c1cnn(-c2ccccn2)c1C(F)(F)F` [Example B-8, ethyl 3-(3-fluoropyridin-4-yl)-5-(1-(pyridin-2-yl)-5-(trifluoromethyl)-1H-pyrazol-4-yl)isoxazole-4-carboxylate], for which the IC50 under setting [2] lay within 1 to 10 µM.
On the same count and under the same terms, under `COC(=O)c1c(-c2c(F)cccc2Cl)noc1-c1cnn(-c2ccccn2)c1C(F)(F)F` [Example 84, methyl 3-(2-chloro-6-fluorophenyl)-5-(1-(pyridin-2-yl)-5-(trifluoromethyl)-1H-pyrazol-4-yl)isoxazole-4-carboxylate] stands less than 0.01 µM.
Consider `Fc1cccc(Cl)c1-c1noc(-c2cnn(-c3cccc(Cl)c3)c2C(F)(F)F)c1-c1cnco1` [Example I-8, 3-(2-chloro-6-fluorophenyl)-5-(1-(3-chlorophenyl)-5-(trifluoromethyl)-1H-pyrazol-4-yl)-4-(oxazol-5-yl)isoxazole], for which, under setting [1], the IC50 is less than 0.01 µM.
In the case of `COC(=O)c1c(-c2c(Cl)cccc2Cl)noc1-c1cnn(-c2cccc(F)c2)c1C(F)(F)F` [Example 109, methyl 3-(2,6-dichlorophenyl)-5-(1-(3-fluorophenyl)-5-(trifluoromethyl)-1H-pyrazol-4-yl)isoxazole-4-carboxylate], the IC50 under setting [2] is less than 0.01 µM.
In the case of `CNC(=O)c1c(-c2c(F)cccc2Cl)noc1-c1cnn(-c2cccnc2)c1C(F)(F)F` [Example B-55, 3-(2-chloro-6-fluorophenyl)-N-methyl-5-(1-(pyridin-3-yl)-5-(trifluoromethyl)-1H-pyrazol-4-yl)isoxazole-4-carboxamide], the IC50 under setting [2] was in the range of 1 to 10 µM.
For `CCOC(=O)c1c(-c2ccncc2F)noc1-c1cnn(-c2cccc(Cl)c2)c1C(F)(F)F` [Example B-4, ethyl 5-(1-(3-chlorophenyl)-5-(trifluoromethyl)-1H-pyrazol-4-yl)-3-(3-fluoropyridin-4-yl)isoxazole-4-carboxylate], the IC50 under setting [2] was 1 to 10 µM.
`COC(=O)c1c(-c2c(F)cccc2Cl)noc1-c1cnn(-c2ccccc2F)c1C(F)(F)F` [Example 1, methyl 3-(2-chloro-6-fluorophenyl)-5-(1-(2-fluorophenyl)-5-(trifluoromethyl)-1H-pyrazol-4-yl)isoxazole-4-carboxylate]: under setting [2], the IC50 was in the range of 0.01 to 0.1 µM.
Regarding `CCOC(=O)c1c(-c2c(F)cccc2Cl)noc1-c1cnn(-c2ccccn2)c1C(F)(F)F` [Example B-84, ethyl 3-(2-chloro-6-fluorophenyl)-5-(1-(pyridin-2-yl)-5-(trifluoromethyl)-1H-pyrazol-4-yl)isoxazole-4-carboxylate], under setting [2], the IC50 is less than 0.01 µM.
As to `COC(=O)c1c(-c2ccccc2Cl)noc1-c1cnn(-c2cccc(Cl)c2)c1C(F)(F)F` [Example B-71, methyl 3-(2-chlorophenyl)-5-(1-(3-chlorophenyl)-5-(trifluoromethyl)-1H-pyrazol-4-yl)isoxazole-4-carboxylate], the IC50 under setting [2] was less than 0.01 µM.
Turning to `Fc1cccc(Cl)c1-c1noc(-c2cnn(-c3ccncc3)c2C(F)(F)F)c1Br` [Example B-83, 4-bromo-3-(2-chloro-6-fluorophenyl)-5-(1-(pyridin-4-yl)-5-(trifluoromethyl)-1H-pyrazol-4-yl)isoxazole], the IC50 under setting [2] lay within 1 to 10 µM.
Regarding `CSC(=O)c1c(-c2c(F)cccc2Cl)noc1-c1cnn(-c2ccccc2F)c1C(F)(F)F` [Example 130, S-methyl 3-(2-chloro-6-fluorophenyl)-5-(1-(2-fluorophenyl)-5-(trifluoromethyl)-1H-pyrazol-4-yl)isoxazole-4-carbothioate], the IC50 under setting [2] was less than 0.01 µM.
Take `CCOC(=O)c1c(-c2c(F)cccc2Cl)noc1-c1cnn(CCOC)c1C(F)(F)F` [Example B-2, ethyl 3-(2-chloro-6-fluorophenyl)-5-(1-(2-methoxyethyl)-5-(trifluoromethyl)-1H-pyrazol-4-yl)isoxazole-4-carboxylate]: the IC50 under setting [2] was 1 to 10 µM.
As for `CCOC(=O)c1c(-c2ccc(Cl)cc2Cl)noc1-c1cnn(-c2cccc(Cl)c2)c1C(F)(F)F` [Example B-46, ethyl 5-(1-(3-chlorophenyl)-5-(trifluoromethyl)-1H-pyrazol-4-yl)-3-(2,4-dichlorophenyl)-isoxazole-4-carboxylate], the IC50 under setting [2] fell in the range of 0.1 to 1 µM.
With `CC(C)OC(=O)c1c(-c2c(F)cccc2Cl)noc1-c1cnn(-c2cccc(S(N)(=O)=O)c2)c1C(F)(F)F` [Example B-73, isopropyl 3-(2-chloro-6-fluorophenyl)-5-(1-(3-sulfamoylphenyl)-5-(trifluoromethyl)-1H-pyrazol-4-yl)isoxazole-4-carboxylate], the IC50 under setting [2] lay within 1 to 10 µM.
Consider `O=C(c1c(-c2c(F)cccc2Cl)noc1-c1cnn(-c2ccccc2F)c1C(F)(F)F)N1CCOCC1` [Example 16, (3-(2-chloro-6-fluorophenyl)-5-(1-(2-fluorophenyl)-5-(trifluoromethyl)-1H-pyrazol-4-yl)isoxazol-4-yl)(morpholino)methanone], for which the IC50 under setting [2] was 1 to 10 µM.
Turning to `CCOC(=O)c1c(-c2c(F)cccc2Cl)noc1-c1cnn(CC2CCCO2)c1C(F)(F)F` (centres unmarked) [Example B-96, ethyl 3-(2-chloro-6-fluorophenyl)-5-(1-((tetrahydrofuran-2-yl)methyl)-5-(trifluoromethyl)-1H-pyrazol-4-yl)isoxazole-4-carboxylate], the IC50 under setting [2] was 0.01 to 0.1 µM.
